Assay results published in ChEMBL document CHEMBL6092221, “Discovery of a Novel Macrocyclic Noncovalent CDK7 Inhibitor for Cancer Therapy” (J Med Chem, 2024).
Values after ≈ are worked out from the molar mass of the structure shown.

What was measured:
[1] = Clearance in female Balb/c nude mouse at 1 mg/kg, iv; type: ADME, organism-based; settings: in vivo
[2] = Cmax in female Balb/c nude mouse at 5 mg/kg, po; type: ADME, organism-based; settings: in vivo
[3] = AUC(0 to t) in female Balb/c nude mouse at 5 mg/kg, po; type: ADME, organism-based; settings: in vivo
[4] = Half life in mouse at 1 mg/kg, iv; type: ADME, organism-based; settings: in vivo
[5] = Half life in dog at 0.2 mg/kg, iv; type: ADME, organism-based, Canis lupus familiaris; settings: in vivo
[6] = Half life in mouse at 5 mg/kg, po; type: ADME, organism-based; settings: in vivo
[7] = Clearance in rat at 1 mg/kg, iv; type: ADME, organism-based; settings: in vivo
[8] = Volume of distribution at steady state in mouse at 1 mg/kg, iv; type: ADME, organism-based; settings: in vivo, read-out: Vdss
[9] = Volume of distribution at steady state in rat at 1 mg/kg, iv; type: ADME, organism-based; settings: in vivo, read-out: Vdss
[10] = Volume of distribution at steady state in dog at 0.2 mg/kg, iv; type: ADME, organism-based, Canis lupus familiaris; settings: in vivo, read-out: Vdss
[11] = AUC(0 to t) in rat at 5 mg/kg, po; type: ADME, organism-based; settings: in vivo
[12] = AUC(0 to t) in dog at 2 mg/kg, po; type: ADME, organism-based, Canis lupus familiaris; settings: in vivo
[13] = Cmax in mouse at 5 mg/kg, po; type: ADME, organism-based; settings: in vivo
[14] = Cmax in dog at 2 mg/kg, po; type: ADME, organism-based, Canis lupus familiaris; settings: in vivo
[15] = Oral bioavailability in rat at 5 mg/kg; type: ADME, organism-based; settings: in vivo
[16] = Drug concentration in rat small intestine at 5 mg/kg, po measured after 2 hrs; type: ADME, organism-based; settings: read-out: Ct
[17] = Cmax in Sprague-Dawley rat at 30 mg/kg, po; type: ADME, organism-based; settings: in vivo
[18] = AUC(0 to 24 hrs) in Sprague-Dawley rat at 100 mg/kg, po; type: ADME, organism-based; settings: in vivo
[19] = target: Cyclin-dependent kinase 9 (Homo sapiens, UniProt P50750); assay: Inhibition of CDK9 (unknown origin)
CDK4/Cyclin D3 = CDK4/Cyclin D3 (Homo sapiens, UniProt P11802); assay: Inhibition of CDK4/Cyclin D3 (unknown origin); type: protein-complex assay
[20] = target: Serine/threonine-protein kinase D1 (Homo sapiens, UniProt Q15139); assay: Inhibition of PRKD1 (unknown origin)
[21] = target: Serine/threonine-protein kinase D2 (Homo sapiens, UniProt Q9BZL6); assay: Inhibition of PRKD2 (unknown origin)
[22] = Solubility of compound at pH 7.4; type: physicochemical; settings: buffer
[23] = Plasma protein binding in mouse assessed as unbound fraction; type: ADME, cell-free
[24] = Plasma protein binding in rat assessed as unbound fraction; type: ADME, cell-free
[25] = Plasma stability in human assessed as half life; type: ADME, cell-free
Cytochrome P450 1A2 = Cytochrome P450 1A2 (Homo sapiens, UniProt P05177); assay: Inhibition of CYP1A2 (unknown origin); type: ADME
Cytochrome P450 2C9 = Cytochrome P450 2C9 (Homo sapiens, UniProt P11712); assay: Inhibition of CYP2C9 (unknown origin); type: ADME
Cytochrome P450 2C19 = Cytochrome P450 2C19 (Homo sapiens, UniProt P33261); assay: Inhibition of CYP2C19 (unknown origin); type: ADME
Cytochrome P450 2D6 = Cytochrome P450 2D6 (Homo sapiens, UniProt P10635); assay: Inhibition of CYP2D6 (unknown origin); type: ADME
Cytochrome P450 3A4 = Cytochrome P450 3A4 (Homo sapiens, UniProt P08684); assay: Inhibition of CYP3A4 (unknown origin); type: ADME
[26] = target: Voltage-gated inwardly rectifying potassium channel KCNH2 (Homo sapiens, UniProt Q12809); assay: Inhibition of hERG; type: toxicity
OVCAR-3 [27] = assay: Antitumor activity against human OVCAR-3 cells xenografted in female Balb/c nude mouse assessed as tumor growth inhibition at 5 mg/kg, po administered once daily and measured on day 22; type: functional; settings: OVCAR-3, 528 h, time 22 day, read-out: TGI
OVCAR-3 [28] = assay: Antitumor activity against human OVCAR-3 cells xenografted in female Balb/c nude mouse assessed as tumor growth inhibition at 20 mg/kg, po administered once daily and measured on day 22; type: functional; settings: OVCAR-3, 528 h, time 22 day, read-out: TGI
[29] = Half life in human OVCAR-3 cells xenografted in female Balb/c nude mouse plasma at 2 mg/kg, po administered once daily; type: ADME, organism-based
[30] = Cmax in human OVCAR-3 cells xenografted in female Balb/c nude mouse plasma at 5 mg/kg, po administered once daily; type: ADME, organism-based
[31] = AUC (0 to t) in human OVCAR-3 cells xenografted in female Balb/c nude mouse plasma at 10 mg/kg, po administered once daily; type: ADME, organism-based
Mus musculus = assay: Downregulation of Myc protein in female Balb/c nude mouse xenografted with human HCC70 cells administered once daily for 7 days; type: functional; settings: dose 2-10 mg/kg, time 7.0 day
HCC70 [32] = assay: Antitumor activity against human HCC70 cells xenografted in female nu/nu mouse assessed as tumor growth inhibition at 1 mg/kg, po administered once daily and measured for 4 weeks; type: functional; settings: HCC70, 672 h, read-out: TGI
HCC70 [33] = assay: Antitumor activity against human HCC70 cells xenografted in female nu/nu mouse assessed as tumor growth inhibition at 3 mg/kg, po administered once daily and measured for 4 weeks; type: functional; settings: HCC70, 672 h, read-out: TGI
[34] = AUC(0 to t) in human HCC70 cells xenografted in female nu/nu mouse plasma at 3 mg/kg, po administered once daily; type: ADME, organism-based
[35] = Toxicity in female nu/nu mouse xenografted with human HCC70 cells assessed as body weight loss at 1 to 10 mg/kg, po administered once daily and measured for 4 weeks; type: organism-based; settings: in vivo, 672 h, dose 1-10 mg/kg
OVCAR-3 [36] = assay: cells; settings: Homo sapiens, OVCAR-3, 72 h
Description: Antiproliferative activity against human OVCAR-3 cells assessed as inhibition of cell proliferation incubated for 72 hrs by celltiter-glo assay

[37] = target: Mitogen-activated protein kinase 15 (Homo sapiens) (UniProt Q8TD08); assay: Inhibition of Erk8 (unknown origin) at 200 nM relative to control; values are per cent of control
[38] = target: Mitogen-activated protein kinase 7 (Homo sapiens, UniProt Q13164); assay: Inhibition of Erk5 (unknown origin) at 200 nM relative to control; values are per cent of control
[39] = target: Homeodomain-interacting protein kinase 4 (Homo sapiens) (UniProt Q8NE63); assay: Inhibition of HIPK4 (unknown origin) at 200 nM relative to control; values are per cent of control
[40] = target: Serine/threonine-protein kinase D1 (Homo sapiens) (UniProt Q15139); assay: Inhibition of PRKD1 (unknown origin) at 200 nM relative to control; values are per cent of control
[41] = target: Serine/threonine-protein kinase D2 (Homo sapiens) (UniProt Q9BZL6); assay: Inhibition of PRKD2 (unknown origin) at 200 nM relative to control; values are per cent of control
CDK18/Cyclin Y = CDK18/Cyclin Y (Homo sapiens, UniProt Q07002+Q8ND76); assay: Inhibition of CDK18/Cyclin Y (unknown origin) at 200 nM relative to control; values are per cent of control

Mitogen-activated protein kinase 7, sequence (Q13164 2-816 limits assumed): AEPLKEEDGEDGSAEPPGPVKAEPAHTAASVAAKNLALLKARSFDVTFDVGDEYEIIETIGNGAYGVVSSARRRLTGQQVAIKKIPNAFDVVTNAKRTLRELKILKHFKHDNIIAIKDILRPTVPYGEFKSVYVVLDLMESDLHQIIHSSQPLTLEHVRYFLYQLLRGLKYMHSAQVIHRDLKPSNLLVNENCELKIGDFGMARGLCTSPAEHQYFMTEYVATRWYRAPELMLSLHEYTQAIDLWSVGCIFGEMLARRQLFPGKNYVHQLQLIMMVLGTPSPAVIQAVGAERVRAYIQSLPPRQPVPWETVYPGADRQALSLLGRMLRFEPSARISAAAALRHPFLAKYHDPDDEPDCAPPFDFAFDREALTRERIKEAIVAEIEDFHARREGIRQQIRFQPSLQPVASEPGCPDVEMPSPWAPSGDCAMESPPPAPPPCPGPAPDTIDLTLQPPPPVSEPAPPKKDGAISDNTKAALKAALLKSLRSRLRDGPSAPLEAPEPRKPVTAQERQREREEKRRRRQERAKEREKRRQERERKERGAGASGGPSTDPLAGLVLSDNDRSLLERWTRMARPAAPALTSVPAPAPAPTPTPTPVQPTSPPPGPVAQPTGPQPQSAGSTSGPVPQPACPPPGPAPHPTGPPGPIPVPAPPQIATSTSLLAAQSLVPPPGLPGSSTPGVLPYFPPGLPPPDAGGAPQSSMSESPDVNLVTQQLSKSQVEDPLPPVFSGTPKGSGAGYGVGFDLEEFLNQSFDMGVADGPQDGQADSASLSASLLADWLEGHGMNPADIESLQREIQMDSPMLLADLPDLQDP
Voltage-gated inwardly rectifying potassium channel KCNH2, sequence (Q12809 whole entry): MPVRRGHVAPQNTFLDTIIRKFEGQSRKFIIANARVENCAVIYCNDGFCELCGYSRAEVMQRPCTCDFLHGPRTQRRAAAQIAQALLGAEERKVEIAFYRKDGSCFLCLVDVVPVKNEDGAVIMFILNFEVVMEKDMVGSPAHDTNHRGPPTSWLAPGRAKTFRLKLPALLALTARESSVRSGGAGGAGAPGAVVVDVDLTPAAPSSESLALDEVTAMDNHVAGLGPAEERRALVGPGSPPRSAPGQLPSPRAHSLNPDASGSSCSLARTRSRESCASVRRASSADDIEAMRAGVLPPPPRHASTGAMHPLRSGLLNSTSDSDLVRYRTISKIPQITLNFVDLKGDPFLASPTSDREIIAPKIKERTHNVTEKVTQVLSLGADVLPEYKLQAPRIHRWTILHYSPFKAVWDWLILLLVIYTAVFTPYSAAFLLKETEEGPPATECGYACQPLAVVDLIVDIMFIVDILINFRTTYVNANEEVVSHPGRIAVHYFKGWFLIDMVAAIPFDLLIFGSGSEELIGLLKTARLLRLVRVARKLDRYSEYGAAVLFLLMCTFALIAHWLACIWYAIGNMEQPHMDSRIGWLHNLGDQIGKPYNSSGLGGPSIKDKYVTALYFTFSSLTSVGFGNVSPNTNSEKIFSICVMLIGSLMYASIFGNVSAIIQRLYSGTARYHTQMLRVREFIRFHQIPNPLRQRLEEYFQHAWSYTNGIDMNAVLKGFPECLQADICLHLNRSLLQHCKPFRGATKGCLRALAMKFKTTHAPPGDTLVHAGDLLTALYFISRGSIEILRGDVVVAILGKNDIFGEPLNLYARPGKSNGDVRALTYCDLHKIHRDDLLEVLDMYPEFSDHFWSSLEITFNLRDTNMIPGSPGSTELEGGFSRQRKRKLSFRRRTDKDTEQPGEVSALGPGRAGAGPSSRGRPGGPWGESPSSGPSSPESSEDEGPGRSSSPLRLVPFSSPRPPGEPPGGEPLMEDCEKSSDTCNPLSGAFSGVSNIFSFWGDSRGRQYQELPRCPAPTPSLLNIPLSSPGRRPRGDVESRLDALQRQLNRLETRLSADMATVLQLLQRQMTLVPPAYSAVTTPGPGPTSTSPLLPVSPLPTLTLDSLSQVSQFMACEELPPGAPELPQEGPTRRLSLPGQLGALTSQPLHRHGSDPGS
Cytochrome P450 2D6, sequence (P10635 whole entry): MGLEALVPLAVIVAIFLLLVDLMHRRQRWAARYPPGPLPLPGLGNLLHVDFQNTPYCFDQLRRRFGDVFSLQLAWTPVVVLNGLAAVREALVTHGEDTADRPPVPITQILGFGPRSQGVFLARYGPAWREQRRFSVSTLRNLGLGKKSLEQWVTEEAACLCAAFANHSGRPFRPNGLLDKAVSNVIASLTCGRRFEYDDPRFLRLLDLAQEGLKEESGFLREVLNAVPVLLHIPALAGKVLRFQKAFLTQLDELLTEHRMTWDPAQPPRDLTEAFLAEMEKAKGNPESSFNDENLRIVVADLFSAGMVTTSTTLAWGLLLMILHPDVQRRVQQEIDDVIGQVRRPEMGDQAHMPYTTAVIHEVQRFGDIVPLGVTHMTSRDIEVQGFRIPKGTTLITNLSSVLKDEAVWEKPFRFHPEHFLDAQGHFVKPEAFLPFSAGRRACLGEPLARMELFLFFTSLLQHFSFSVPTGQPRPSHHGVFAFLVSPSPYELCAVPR
Mitogen-activated protein kinase 15 (Homo sapiens), sequence (Q8TD08 whole entry): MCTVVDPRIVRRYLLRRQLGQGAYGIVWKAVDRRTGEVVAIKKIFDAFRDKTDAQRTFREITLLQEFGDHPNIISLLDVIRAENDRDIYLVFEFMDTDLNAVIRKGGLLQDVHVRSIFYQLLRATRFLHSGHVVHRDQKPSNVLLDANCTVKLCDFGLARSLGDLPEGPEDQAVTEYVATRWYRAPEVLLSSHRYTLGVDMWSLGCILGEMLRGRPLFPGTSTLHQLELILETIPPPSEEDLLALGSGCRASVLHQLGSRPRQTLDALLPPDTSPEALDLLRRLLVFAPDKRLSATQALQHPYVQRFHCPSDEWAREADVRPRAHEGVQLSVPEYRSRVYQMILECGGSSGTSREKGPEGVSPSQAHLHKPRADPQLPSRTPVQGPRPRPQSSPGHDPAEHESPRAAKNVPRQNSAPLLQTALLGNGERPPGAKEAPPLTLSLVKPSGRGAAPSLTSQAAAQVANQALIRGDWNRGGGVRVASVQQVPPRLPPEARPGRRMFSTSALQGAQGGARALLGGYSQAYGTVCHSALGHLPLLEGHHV
Cytochrome P450 2C9, sequence (P11712 whole entry): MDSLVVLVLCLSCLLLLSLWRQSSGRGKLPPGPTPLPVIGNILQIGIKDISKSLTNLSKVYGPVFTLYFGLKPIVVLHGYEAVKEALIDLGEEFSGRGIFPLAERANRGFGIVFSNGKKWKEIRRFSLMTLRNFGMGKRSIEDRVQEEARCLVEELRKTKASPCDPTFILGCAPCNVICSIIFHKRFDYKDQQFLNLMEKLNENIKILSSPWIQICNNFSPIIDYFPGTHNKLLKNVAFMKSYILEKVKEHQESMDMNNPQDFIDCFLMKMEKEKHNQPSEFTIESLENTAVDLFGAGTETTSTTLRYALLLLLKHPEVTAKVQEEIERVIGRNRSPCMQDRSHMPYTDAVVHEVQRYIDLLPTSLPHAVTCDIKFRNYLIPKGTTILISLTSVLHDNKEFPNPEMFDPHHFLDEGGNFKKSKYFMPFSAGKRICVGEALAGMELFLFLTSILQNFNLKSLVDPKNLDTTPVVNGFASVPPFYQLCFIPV
Cytochrome P450 3A4, sequence (P08684 whole entry): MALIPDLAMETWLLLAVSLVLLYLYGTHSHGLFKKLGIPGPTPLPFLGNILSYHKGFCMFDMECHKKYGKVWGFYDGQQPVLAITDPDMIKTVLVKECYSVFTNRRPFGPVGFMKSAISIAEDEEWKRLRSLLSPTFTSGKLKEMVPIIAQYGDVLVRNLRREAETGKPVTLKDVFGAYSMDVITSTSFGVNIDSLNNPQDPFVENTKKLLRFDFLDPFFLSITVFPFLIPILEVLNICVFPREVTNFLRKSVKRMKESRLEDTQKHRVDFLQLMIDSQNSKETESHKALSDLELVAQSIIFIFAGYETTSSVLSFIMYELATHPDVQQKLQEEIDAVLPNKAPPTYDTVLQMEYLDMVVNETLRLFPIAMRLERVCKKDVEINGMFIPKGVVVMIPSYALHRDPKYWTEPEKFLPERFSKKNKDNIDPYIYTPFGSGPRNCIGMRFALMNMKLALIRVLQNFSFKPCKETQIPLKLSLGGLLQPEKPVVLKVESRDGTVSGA
Serine/threonine-protein kinase D2 (Homo sapiens), sequence (Q9BZL6 whole entry): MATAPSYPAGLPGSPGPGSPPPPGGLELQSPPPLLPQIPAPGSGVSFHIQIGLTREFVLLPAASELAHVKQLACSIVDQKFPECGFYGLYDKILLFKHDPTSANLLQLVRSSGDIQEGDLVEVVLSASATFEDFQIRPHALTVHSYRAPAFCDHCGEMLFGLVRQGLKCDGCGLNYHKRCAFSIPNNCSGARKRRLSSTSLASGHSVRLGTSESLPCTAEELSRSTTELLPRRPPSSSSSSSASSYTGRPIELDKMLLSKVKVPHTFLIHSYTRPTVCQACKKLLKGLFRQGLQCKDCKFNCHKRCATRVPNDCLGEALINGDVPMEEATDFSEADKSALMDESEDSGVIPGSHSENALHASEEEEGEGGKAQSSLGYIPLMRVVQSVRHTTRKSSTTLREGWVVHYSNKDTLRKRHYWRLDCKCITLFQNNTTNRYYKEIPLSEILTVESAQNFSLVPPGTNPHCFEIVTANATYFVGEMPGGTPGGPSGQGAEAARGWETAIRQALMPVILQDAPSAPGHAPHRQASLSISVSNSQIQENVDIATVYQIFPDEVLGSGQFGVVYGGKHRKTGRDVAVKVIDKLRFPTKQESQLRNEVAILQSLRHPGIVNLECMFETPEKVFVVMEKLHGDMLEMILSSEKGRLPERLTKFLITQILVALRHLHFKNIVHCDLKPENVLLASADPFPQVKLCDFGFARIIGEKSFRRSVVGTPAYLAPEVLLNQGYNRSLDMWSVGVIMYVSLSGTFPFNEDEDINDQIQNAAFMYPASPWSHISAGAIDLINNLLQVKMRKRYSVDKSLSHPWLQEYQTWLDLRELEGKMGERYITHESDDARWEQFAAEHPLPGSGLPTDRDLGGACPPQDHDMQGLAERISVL
Serine/threonine-protein kinase D2, sequence (Q9BZL6 whole entry): as above

CN1CC(F)(F)CCN(C)[C@H]2CC[C@@H](C2)Nc2ncc(C(F)(F)F)c(n2)-c2c[nH]c3c(P(C)(C)=O)c(ccc23)C1=O
clearance [1]: 52.6 mL/min/kg
Cmax [2]: 355 ng/mL
AUC(0-t) [3]: 938 ng·h/mL
half-life [4]: 2 h
half-life [5]: 3.4 h
half-life [6]: 4.3 h
clearance [7]: 39.9 mL/min/kg
Vd [8]: 1.7 L/kg
Vd [9]: 2.6 L/kg
Vd [10]: 0.24 L/kg
AUC(0-t) [11]: 554 ng·h/mL
AUC(0-t) [12]: 44600 ng·h/mL
Cmax [13]: 355 ng/mL
Cmax [14]: 6620 ng/mL
bioavailability [15]: 29%
concentration at 2 h [16]: 3230 ng/g
Cmax [17]: 1270 ng/mL
AUC(0-t) [18]: 14200 ng·h/mL
IC50 [19]: 0.258 µM
IC50 (CDK4/Cyclin D3): 0.0131 µM
IC50 [20]: 0.0237 µM
IC50 [21]: 0.0452 µM
solubility [22]: 917 µg/mL (≈ 1530 µM)
fraction unbound [23]: 0.036
fraction unbound [24]: 0.044
half-life [25]: > 4.82 h
IC50 (Cytochrome P450 1A2): > 50 µM
IC50 (Cytochrome P450 2C9): 41.9 µM
IC50 (Cytochrome P450 2C19): 30.9 µM
IC50 (Cytochrome P450 2D6): 7 µM
IC50 (Cytochrome P450 3A4): 5.2 µM
IC50 [26]: 9.94 µM
inhibition in vivo at 5 mg/kg (OVCAR-3 [27]): 111%
inhibition in vivo at 20 mg/kg (OVCAR-3 [28]): 111%
half-life [29]: 1.7 h
Cmax [30]: 400 ng/mL
AUC(0-t) [31]: 1720 ng·h/mL
Activity (Mus musculus): Dose-dependent-effect
inhibition in vivo at 1 mg/kg (HCC70 [32]): 35.5%
inhibition in vivo at 3 mg/kg (HCC70 [33]): 120%
AUC(0-t) [34]: 203 ng·h/mL
Activity [35]: Non-toxic
IC50 (OVCAR-3 [36]): 0.057 µM
residual activity [37]: 0.85%
residual activity [38]: 5.6%
residual activity [39]: 9.4%
residual activity [40]: 19%
residual activity [41]: 20%
residual activity (CDK18/Cyclin Y): 2.9%
